Test results from the CheMixHub ionic liquid set.
± gives the uncertainty stated by the source.

Assay: xn = mol fraction of the nth substance listed

CC[N+](CC)(CC)CC.[Cl-] + CC1(C)CC(O)CC(C)(C)N1[O] + O
Settings	electrical conductivity [S/m]
323.15 K, 100 kPa, frequency 0.001 MHz, x2 = 0, x1 = 0.2	4.1 ± 0.2

CCCn1cc[n+](C)c1.[Br-] + CC1COC(=O)O1
298 K, 101 kPa
Settings	electrical conductivity [S/m]
x2 = 0.1	0.04 ± 0.03
x2 = 0.64	0.5 ± 0.04
x2 = 0.67	0.52 ± 0.04
x2 = 0.72	0.58 ± 0.05

CC[n+]1ccn(C)c1C.O=S(=O)([N-]S(=O)(=O)C(F)(F)F)C(F)(F)F + CC1COC(=O)O1
101.3 kPa
Settings	viscosity [mPa·s]
303.15 K, x1 = 0.203	5.35 ± 0.11
303.15 K, x1 = 0.5825	20.07 ± 0.42
313.15 K, x1 = 0.7004	19.96 ± 0.42
318.15 K, x1 = 0.3994	7.33 ± 0.15
318.15 K, x1 = 0.5149	10.82 ± 0.23
318.15 K, x1 = 0.8032	21.86 ± 0.46
323.15 K, x1 = 0.1025	2.411 ± 0.051
323.15 K, x1 = 0.5149	9.41 ± 0.2
323.15 K, x1 = 0.7004	15.48 ± 0.32
328.15 K, x1 = 0.203	3.199 ± 0.067
328.15 K, x1 = 0.8032	16.86 ± 0.35
333.15 K, x1 = 0.3994	5.29 ± 0.11
338.15 K, x1 = 0.3078	3.726 ± 0.078
343.15 K, x1 = 0.3994	4.376 ± 0.092
343.15 K, x1 = 0.5825	6.93 ± 0.15
343.15 K, x1 = 0.8903	13.67 ± 0.29
348.15 K, x1 = 0.1025	1.651 ± 0.035
348.15 K, x1 = 0.7004	8.13 ± 0.17

CCCCc1n(S(=O)(=O)O)cc[n+]1S(=O)(=O)O.O=C([O-])C(F)(F)F + CC#N
101 kPa
Settings	electrical conductivity [S/m]
278.15 K, x1 = 0.02551	1.24 ± 0.025
283.15 K, x1 = 0.02551	1.19 ± 0.024
288.15 K, x1 = 0.02551	1.07 ± 0.021
293.15 K, x1 = 0.02551	0.944 ± 0.019
298.15 K, x1 = 0.0052	0.359 ± 0.007
298.15 K, x1 = 0.0104	0.425 ± 0.009
298.15 K, x1 = 0.0155	0.554 ± 0.011
298.15 K, x1 = 0.0205	0.632 ± 0.013
298.15 K, x1 = 0.0255	0.899 ± 0.018
298.15 K, x1 = 0.02551	0.899 ± 0.018
303.15 K, x1 = 0.02551	0.665 ± 0.013
308.15 K, x1 = 0.02551	0.646 ± 0.013
313.15 K, x1 = 0.02551	0.545 ± 0.011
318.15 K, x1 = 0.02551	0.521 ± 0.01
323.15 K, x1 = 0.02551	0.468 ± 0.009
328.15 K, x1 = 0.02551	0.457 ± 0.009
333.15 K, x1 = 0.02551	0.423 ± 0.008

CC[N+](CC)(CC)CC.[Cl-] + CC(=O)CCC(=O)O
101.3 kPa, x1 = 0.3333
Settings	viscosity [mPa·s]
298.15 K	140 ± 19
308.15 K	83.8 ± 5.8
318.15 K	52.7 ± 0.82
328.15 K	33 ± 1.1
338.15 K	20.23 ± 0.7

C[N+](C)(CCO)Cc1ccccc1.[Cl-] + CC(=O)CCC(=O)O
101.33 kPa, x1 = 0.3333
Settings	viscosity [mPa·s]
293.15 K	2026 ± 100
298.15 K	1235 ± 57
303.15 K	785 ± 33
308.15 K	518 ± 19
313.15 K	353 ± 12
318.15 K	248 ± 8
323.15 K	179 ± 5
328.15 K	133 ± 4
333.15 K	101 ± 3
338.15 K	78 ± 2
343.15 K	61 ± 2
348.15 K	49 ± 1
353.15 K	40 ± 1

CCCn1cc[n+](C)c1.[Br-] + CC(=O)N(C)C
298.15 K, 101 kPa
Settings	viscosity [mPa·s]
x1 = 0.01714	1.124 ± 0.024
x2 = 0.9358	1.653 ± 0.036
x2 = 0.9583	1.383 ± 0.03

CCCC[n+]1ccn(C)c1.N#C[N-]C#N + CC(=O)[O-].[K+] + O
viscosity [mPa·s], 101 kPa
Settings	298.15 K	308.15 K	318.15 K	323.15 K
x2 = 0.1831, x3 = 0.8019	8.2 ± 1.8	6 ± 1.5	–	–
x2 = 0.1943, x3 = 0.7933	10 ± 2.1	7.2 ± 1.6	5.4 ± 1.1	4.815 ± 0.069

CC(=O)[O-].CC[n+]1ccn(C)c1 + CC(=O)[O-].[NH4+]
323.15 K, 101 kPa, x2 = 0
Settings	electrical conductivity [S/m]	viscosity [mPa·s]
–	0.918 ± 0.018	35.7 ± 2.3

CCCN + CC(C)(C)O + CCCCCC[n+]1ccn(C)c1.F[B-](F)(F)F
298.15 K, 101 kPa
Settings	viscosity [mPa·s]
x2 = 0.0474, x1 = 0.3489	46.28 ± 0.97
x2 = 0.0483, x1 = 0.4517	28.58 ± 0.49
x2 = 0.05, x1 = 0.0708	120.9 ± 4.6
x2 = 0.05, x1 = 0.8998	0.723 ± 0.007
x2 = 0.0508, x1 = 0.2562	66.1 ± 1.6
x2 = 0.0508, x1 = 0.8482	1.318 ± 0.013
x2 = 0.0525, x1 = 0.7484	3.959 ± 0.042
x2 = 0.0529, x1 = 0.6504	8.74 ± 0.1
x2 = 0.055, x1 = 0.5488	16.3 ± 0.23
x2 = 0.0572, x1 = 0.1668	88.1 ± 2.7
x2 = 0.1042, x1 = 0.1719	73.7 ± 2
x2 = 0.1487, x1 = 0.0497	96.6 ± 3.1
x2 = 0.1555, x1 = 0.1488	66.7 ± 1.7
x2 = 0.247, x1 = 0.0423	72.1 ± 1.9
x2 = 0.251, x1 = 0.3468	15.17 ± 0.21
x2 = 0.3138, x1 = 0.0592	53 ± 1.2
x2 = 0.3494, x1 = 0.5505	1.808 ± 0.018
x2 = 0.3508, x1 = 0.5993	1.244 ± 0.012
x2 = 0.3529, x1 = 0.349	7.072 ± 0.087
x2 = 0.3545, x1 = 0.4468	2.923 ± 0.03
x2 = 0.3596, x1 = 0.0184	53.2 ± 1.2
x2 = 0.4492, x1 = 0.1454	18.61 ± 0.28
x2 = 0.4496, x1 = 0.0492	32.35 ± 0.59
x2 = 0.6483, x1 = 0.1509	7.984 ± 0.092
x2 = 0.6496, x1 = 0.2508	4.06 ± 0.043
x2 = 0.6511, x1 = 0.299	2.994 ± 0.03
x2 = 0.6551, x1 = 0.0445	15.43 ± 0.21
x2 = 0.7929, x1 = 0.1032	7.67 ± 0.087
x2 = 0.8001, x1 = 0.15	5.198 ± 0.056
x2 = 0.8965, x1 = 0.0518	7.226 ± 0.081

CC[N+](CC)(CC)CC.[Cl-] + CCCCCCCCCC(=O)O
100 kPa, x1 = 0.333
Settings	electrical conductivity [S/m]	viscosity [mPa·s]
293.15 K	0.0223 ± 0.0022	275 ± 61
303.15 K	0.0338 ± 0.0034	185 ± 32
313.15 K	0.0498 ± 0.005	128 ± 16
323.15 K	0.0718 ± 0.0072	90 ± 7.1
333.15 K	0.101 ± 0.01	64.9 ± 2.5

OC[C@H]1O[C@H](O[C@H]2[C@H](O)[C@@H](O)C(O)O[C@@H]2CO)[C@H](O)[C@@H](O)[C@@H]1O (stereo partly drawn) + CCCCCCCCCCCCCCCC[N+](C)(C)C.[Br-] + O
viscosity [mPa·s], 100 kPa
Settings	298.15 K	308.15 K	318.15 K
x2 = 7.13e-06, x1 = 0.002703	1.07 ± 0.062	0.885 ± 0.063	0.734 ± 0.061
x2 = 7.15e-06, x1 = 0.002359	1.048 ± 0.062	0.867 ± 0.061	0.719 ± 0.061
x2 = 7.16e-06, x1 = 0.001637	1.002 ± 0.062	0.829 ± 0.061	0.688 ± 0.061
x2 = 7.16e-06, x1 = 0.001964	1.023 ± 0.062	0.846 ± 0.061	0.702 ± 0.061
x2 = 7.18e-06, x1 = 0.0009633	0.958 ± 0.061	0.793 ± 0.061	0.659 ± 0.061
x2 = 7.18e-06, x1 = 0.001278	0.978 ± 0.061	0.809 ± 0.061	0.672 ± 0.061
x2 = 1.423e-05, x1 = 0.002657	1.073 ± 0.062	0.888 ± 0.062	0.736 ± 0.061
x2 = 1.424e-05, x1 = 0.002424	1.058 ± 0.062	0.875 ± 0.062	0.726 ± 0.061
x2 = 1.428e-05, x1 = 0.001986	1.029 ± 0.062	0.851 ± 0.061	0.706 ± 0.061
x2 = 1.43e-05, x1 = 0.001593	1.003 ± 0.062	0.83 ± 0.061	0.688 ± 0.061
x2 = 1.433e-05, x1 = 0.001228	0.979 ± 0.061	0.81 ± 0.061	0.672 ± 0.061
x2 = 1.435e-05, x1 = 0.0009418	0.96 ± 0.061	0.795 ± 0.061	0.659 ± 0.061
x2 = 2.126e-05, x1 = 0.002693	1.08 ± 0.062	0.894 ± 0.063	0.74 ± 0.061
x2 = 2.128e-05, x1 = 0.002482	1.066 ± 0.062	0.882 ± 0.062	0.73 ± 0.061
x2 = 2.135e-05, x1 = 0.001972	1.032 ± 0.062	0.854 ± 0.061	0.707 ± 0.061
x2 = 2.141e-05, x1 = 0.001636	1.01 ± 0.062	0.835 ± 0.061	0.692 ± 0.061
x2 = 2.143e-05, x1 = 0.001347	0.99 ± 0.061	0.819 ± 0.061	0.678 ± 0.061
x2 = 2.15e-05, x1 = 0.0008556	0.957 ± 0.061	0.792 ± 0.061	0.656 ± 0.061

NCC(=O)O + CCCCCCCCCCCCCCCC[n+]1ccccc1.[Cl-] + O
308.15 K, 101 kPa
Settings	electrical conductivity [S/m]
x1 = 2.018e-05, x2 = 0	6.2e-05 ± 1e-06
x1 = 0.0002, x2 = 0	0.000171 ± 2e-06
x1 = 0.0003639, x2 = 0	0.000413 ± 4e-06
x1 = 0.0009182, x2 = 0	0.00011 ± 1e-06
x1 = 0.001802, x2 = 0	0.000292 ± 3e-06
